Experimental data as given in patent US20250136586A1, “Substituted 7-(Pyrimidin-4-yl)Quinolin-4(1H)-One Compounds as Cyclin Dependent Kinase Inhibitors” (BeiGene, Ltd., priority 2022, published 2025).

Key:
[1] = molecular target: CDK4/Cyclin D1 (Homo sapiens (Human), UniProt P11802); assay: TR-FRET kinase inhibition assay, CDK4/Cyclin D1; type: biochemical; settings: 1 mM ATP, 0.15 μM Rb (Ser780)-biotin substrate, read-out: CDK4D1 IC50
Method in brief: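 Kinase was preincubated with compound for 60 min at room temperature, then reacted with ATP and Rb (Ser780)-biotin substrate for 120 min. IC50 came from a four-parameter logistic fit.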

[2] = molecular target: CDK6/Cyclin D3 (Homo sapiens (Human), UniProt Q00534); assay: TR-FRET kinase inhibition assay, CDK6/Cyclin D3; type: biochemical; settings: 1 mM ATP, 0.15 μM Rb (Ser780)-biotin substrate, read-out: CDK6D3 IC50
CDK6/Cyclin D3, sequence (Q00534 whole entry): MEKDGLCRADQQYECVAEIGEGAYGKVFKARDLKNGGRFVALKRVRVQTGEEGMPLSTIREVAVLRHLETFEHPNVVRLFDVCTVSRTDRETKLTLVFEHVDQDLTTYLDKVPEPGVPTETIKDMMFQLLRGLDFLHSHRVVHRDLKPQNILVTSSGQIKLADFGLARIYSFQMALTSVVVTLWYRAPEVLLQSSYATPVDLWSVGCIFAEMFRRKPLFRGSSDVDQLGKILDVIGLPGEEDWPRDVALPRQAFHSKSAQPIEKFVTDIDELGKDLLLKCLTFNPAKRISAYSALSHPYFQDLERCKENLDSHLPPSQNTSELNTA
CDK6/Cyclin D3, sequence (P30281 whole entry partner): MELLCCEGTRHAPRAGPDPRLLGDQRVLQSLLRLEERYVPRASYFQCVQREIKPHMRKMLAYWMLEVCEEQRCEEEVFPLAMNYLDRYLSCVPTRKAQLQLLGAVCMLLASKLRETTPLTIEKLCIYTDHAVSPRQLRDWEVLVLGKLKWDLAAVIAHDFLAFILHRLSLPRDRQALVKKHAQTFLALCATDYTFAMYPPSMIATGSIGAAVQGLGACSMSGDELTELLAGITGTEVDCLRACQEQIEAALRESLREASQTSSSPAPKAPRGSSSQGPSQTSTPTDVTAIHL
Method in brief: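 Kinase preincubated 60 min at room temperature with 0–10 μM compound; reaction started with 1 mM ATP and 0.15 μM Rb (Ser780)-biotin, run 120 min at room temperature in HEPES pH 7.0, 50 mM MgCl2. pRb detected by TR-FRET (665/620 nm ratio); IC50 from four-parameter logistic fit.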

CDK4/Cyclin D1, sequence (P11802 whole entry): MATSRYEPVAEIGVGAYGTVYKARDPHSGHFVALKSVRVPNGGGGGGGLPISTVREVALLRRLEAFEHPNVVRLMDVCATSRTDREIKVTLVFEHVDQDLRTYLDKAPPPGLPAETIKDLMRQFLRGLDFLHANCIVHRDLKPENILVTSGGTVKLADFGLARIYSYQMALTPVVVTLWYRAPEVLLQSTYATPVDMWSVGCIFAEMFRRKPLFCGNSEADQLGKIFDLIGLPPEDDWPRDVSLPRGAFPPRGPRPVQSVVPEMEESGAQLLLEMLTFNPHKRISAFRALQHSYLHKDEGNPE
CDK4/Cyclin D1, sequence (P24385 whole entry partner): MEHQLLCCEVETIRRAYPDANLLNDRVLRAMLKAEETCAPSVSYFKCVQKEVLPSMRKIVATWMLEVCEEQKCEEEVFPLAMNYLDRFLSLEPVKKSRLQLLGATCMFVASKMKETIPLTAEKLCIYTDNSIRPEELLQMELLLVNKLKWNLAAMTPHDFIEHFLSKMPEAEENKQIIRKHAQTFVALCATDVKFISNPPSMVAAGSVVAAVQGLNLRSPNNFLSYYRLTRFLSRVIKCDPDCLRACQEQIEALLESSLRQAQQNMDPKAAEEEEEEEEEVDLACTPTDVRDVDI

SMILES | IC50 [1] [nM] | IC50 [2] [nM]
CC(C)n1c(C2CCCN2)cc(=O)c2ccc(-c3nc(N[C@@H]4CCOC[C@H]4O)ncc3F)cc21 (stereo partly drawn) [Example 388, 7-(5-fluoro-2-(((3S,4R)-3-hydroxytetrahydro-2H-pyran-4-yl)amino)pyrimidin-4-yl)-1-isopropyl-2-(pyrrolidin-2-yl)quinolin-4(1H)-one] | 10 | 450
CC(C)n1c(CN2CC(O)C2)cc(=O)c2ccc(-c3nc(N[C@@H]4CCOC[C@H]4O)ncc3F)cc21 [Example 30, 7-(5-fluoro-2-(((3S,4R)-3-hydroxytetrahydro-2H-pyran-4-yl)amino)pyrimidin-4-yl)-2-((3-hydroxyazetidin-1-yl)methyl)-1-isopropylquinolin-4(1H)-one] | 30 | 780
Cc1c(C2CC2)c(=O)c2ccc(-c3nc(N[C@@H]4CCOC[C@H]4O)ncc3F)cc2n1C(C)C [Example 40, 3-cyclopropyl-7-(5-fluoro-2-(((3S,4R)-3-hydroxytetrahydro-2H-pyran-4-yl)amino)pyrimidin-4-yl)-1-isopropyl-2-methylquinolin-4(1H)-one] | 8.8 | 150
CC(C)n1c(CN2CCC(F)(F)CC2)cc(=O)c2ccc(-c3nc(N[C@@H]4CCOC[C@H]4O)ncc3F)cc21 [Example 54, 2-((4,4-difluoropiperidin-1-yl)methyl)-7-(5-fluoro-2-(((3S,4R)-3-hydroxytetrahydro-2H-pyran-4-yl)<amino)pyrimidin-4-yl)-1-isopropylquinolin-4(1H)-one] | 13 | 260
CC(C)n1c(CN2CCC(F)CC2)cc(=O)c2ccc(-c3nc(N[C@@H]4CCOC[C@H]4O)ncc3F)cc21 [Example 99, 7-(5-fluoro-2-(((3S,4R)-3-hydroxytetrahydro-2H-pyran-4-yl)amino)pyrimidin-4-yl)-2-((4-fluoropiperidin-1-yl)methyl)-1-isopropylquinolin-4(1H)-one] | 17 | 561
CC(C)n1c(CN2CCC(O)CC2)cc(=O)c2ccc(-c3nc(N[C@@H]4CCOC[C@H]4O)ncc3F)cc21 [Example 39, 7-(5-fluoro-2-(((3S,4R)-3-hydroxytetrahydro-2H-pyran-4-yl)amino)pyrimidin-4-yl)-2-((4-hydroxypiperidin-1-yl)methyl)-1-isopropylquinolin-4(1H)-one] | 24 | 744
CC(C)n1c(CN[C@H]2C[C@H](F)C2)cc(=O)c2ccc(-c3nc(N[C@@H]4CCOC[C@H]4O)ncc3F)cc21 [Example 63, 7-(5-fluoro-2-(((3S,4R)-3-hydroxytetrahydro-2H-pyran-4-yl)amino)pyrimidin-4-yl)-2-((((1r,3R)-3-fluorocyclobutyl)amino)methyl)-1-isopropylquinolin-4(1H)-one] | 22 | 484
CC(C)n1c(CN2[C@H](C)COC[C@H]2C)cc(=O)c2ccc(-c3nc(N[C@@H]4CCOC[C@H]4O)ncc3F)cc21 [Example 106, 2-(((3R,5R)-3,5-dimethylmorpholino)methyl)-7-(5-fluoro-2-(((3S,4R)-3-hydroxytetrahydro-2H-pyran-4-yl)amino)pyrimidin-4-yl)-1-isopropylquinolin-4(1H)-one] | 4.8 | 298
CC(C)n1c(CNC(C)(C)C)cc(=O)c2ccc(-c3nc(N[C@@H]4CCOC[C@H]4O)ncc3F)cc21 [Example 75, 2-((tert-butylamino)methyl)-7-(5-fluoro-2-(((3S,4R)-3-hydroxytetrahydro-2H-pyran-4-yl)amino)pyrimidin-4-yl)-1-isopropylquinolin-4(1H)-one] | 21 | 525
CC(C)n1c(CN2C[C@@H](O)[C@H](F)C2)cc(=O)c2ccc(-c3nc(N[C@@H]4CCOC[C@H]4O)ncc3F)cc21 [Example 46, 7-(5-fluoro-2-(((3S,4R)-3-hydroxytetrahydro-2H-pyran-4-yl)amino)pyrimidin-4-yl)-2-(((3R,4R)-3-fluoro-4-hydroxypyrrolidin-1-yl)methyl)-1-isopropylquinolin-4(1H)-one] | 12 | 480
Cc1c(CN2CCOCC23CC3)n(C(C)C)c2cc(-c3nc(N[C@@H]4CCOC[C@H]4O)ncc3F)ccc2c1=O [Example 117, 2-((7-oxa-4-azaspiro[2.5]octan-4-yl)methyl)-7-(5-fluoro-2-(((3S,4R)-3-hydroxytetrahydro-2H-pyran-4-yl)amino)pyrimidin-4-yl)-1-isopropyl-3-methylquinolin-4(1H)-one] | 1.9 | 96.9
CC(C)n1c(CO)cc(=O)c2ccc(-c3nc(N[C@@H]4CCOC[C@H]4O)ncc3F)cc21 [Example 17, 7-(5-fluoro-2-(((3S,4R)-3-hydroxytetrahydro-2H-pyran-4-yl)amino)pyrimidin-4-yl)-2-(hydroxymethyl)-1-isopropylquinolin-4(1H)-one] | 7.5 | 120

Continued, values first:

IC50 [1] [nM] | IC50 [2] [nM] | SMILES
15 | 330 | Cc1c(CN2CC3CCC(C2)O3)n(C(C)C)c2cc(-c3nc(N[C@@H]4CCOC[C@H]4O)ncc3F)ccc2c1=O [Example 102, 2-((8-oxa-3-azabicyclo[3.2.1]octan-3-yl)methyl)-7-(5-fluoro-2-(((3S,4R)-3-hydroxytetrahydro-2H-pyran-4-yl)amino)pyrimidin-4-yl)-1-isopropyl-3-methylquinolin-4(1H)-one]
15 | 510 | CC(C)n1c(CN(C)C)cc(=O)c2ccc(-c3nc(N[C@@H]4CCOC[C@H]4O)ncc3F)cc21 [Example 20, 2-((dimethylamino)methyl)-7-(5-fluoro-2-(((3S,4R)-3-hydroxytetrahydro-2H-pyran-4-yl)amino)pyrimidin-4-yl)-1-isopropylquinolin-4(1H)-one]
15 | 615 | Cc1c(CN[C@@H]2CCOC2)n(C(C)C)c2cc(-c3nc(N[C@@H]4CCOC[C@H]4O)ncc3F)ccc2c1=O [Example 112, 7-(5-fluoro-2-(((3S,4R)-3-hydroxytetrahydro-2H-pyran-4-yl)amino)pyrimidin-4-yl)-1-isopropyl-3-methyl-2-((((R)-tetrahydrofuran-3-yl)amino)methyl)quinolin-4(1H)-one]
21 | 777 | CC(C)n1c(CN2CC[C@H](O)C2)cc(=O)c2ccc(-c3nc(N[C@@H]4CCOC[C@H]4O)ncc3F)cc21 [Example 86, 7-(5-fluoro-2-(((3S,4R)-3-hydroxytetrahydro-2H-pyran-4-yl)amino)pyrimidin-4-yl)-2-(((S)-3-hydroxypyrrolidin-1-yl)methyl)-1-isopropylquinolin-4(1H)-one]
21 | 483 | CC(C)n1c(CN[C@H]2CCOC2)cc(=O)c2ccc(-c3nc(N[C@@H]4CCOC[C@H]4O)ncc3F)cc21 [Example 67, 7-(5-fluoro-2-(((3S,4R)-3-hydroxytetrahydro-2H-pyran-4-yl)amino)pyrimidin-4-yl)-1-isopropyl-2-((((S)-tetrahydrofuran-3-yl)amino)methyl)quinolin-4(1H)-one]
11 | 165 | CC(C)n1c(CNc2ccccc2)cc(=O)c2ccc(-c3nc(N[C@@H]4CCOC[C@H]4O)ncc3F)cc21 [Example 94, 7-(5-fluoro-2-(((3S,4R)-3-hydroxytetrahydro-2H-pyran-4-yl)amino)pyrimidin-4-yl)-1-isopropyl-2-((phenylamino)methyl)quinolin-4(1H)-one]
6.9 | 276 | CC(C)n1c(CN)cc(=O)c2ccc(-c3nc(N[C@@H]4CCOC[C@H]4O)ncc3F)cc21 [Example 35]
258 | 1930 | CC(C)n1cc(Cl)c(=O)c2ccc(-c3nc(N[C@@H]4CCOC[C@H]4O)ncc3F)cc21 [Example 12, 3-chloro-7-(5-fluoro-2-(((3S,4R)-3-hydroxytetrahydro-2H-pyran-4-yl)amino)pyrimidin-4-yl)-1-isopropylquinolin-4(1H)-one]
6.6 | 271 | Cc1c(CN2CCC(O)CC2)n(C(C)C)c2cc(-c3nc(N[C@@H]4CCOC[C@H]4O)ncc3F)ccc2c1=O [Example 115, 7-(5-fluoro-2-(((3S,4R)-3-hydroxytetrahydro-2H-pyran-4-yl)amino)pyrimidin-4-yl)-2-((4-hydroxypiperidin-1-yl)methyl)-1-isopropyl-3-methylquinolin-4(1H)-one]
49 | 931 | CC(C)n1c(C(=O)NCC(C)(C)O)cc(=O)c2ccc(-c3nc(N[C@@H]4CCOC[C@H]4O)ncc3Cl)cc21 [Example 22, 7-(5-chloro-2-(((3S,4R)-3-hydroxytetrahydro-2H-pyran-4-yl)amino)pyrimidin-4-yl)-N-(2-hydroxy-2-methylpropyl)-1-isopropyl-4-oxo-1,4-dihydroquinoline-2-carboxamide]
11 | 396 | CC(C)n1c(CN2CCCC(F)(F)C2)cc(=O)c2ccc(-c3nc(N[C@@H]4CCOC[C@H]4O)ncc3F)cc21 [Example 70, 2-((3,3-difluoropiperidin-1-yl)methyl)-7-(5-fluoro-2-(((3S,4R)-3-hydroxytetrahydro-2H-pyran-4-yl)amino)pyrimidin-4-yl)-1-isopropylquinolin-4(1H)-one]
16 | 352 | CC(C)n1c(CN2CCC[C@@H](O)C2)cc(=O)c2ccc(-c3nc(N[C@@H]4CCOC[C@H]4O)ncc3F)cc21 [Example 57, 7-(5-fluoro-2-(((3S,4R)-3-hydroxytetrahydro-2H-pyran-4-yl)amino)pyrimidin-4-yl)-2-(((R)-3-hydroxypiperidin-1-yl)methyl)-1-isopropylquinolin-4(1H)-one]
249 | 3240 | CC(C)n1cc(C(C)(C)O)c(=O)c2ccc(-c3nc(N[C@@H]4CCOC[C@H]4O)ncc3F)cc21 [Example 5, 7-(5-fluoro-2-(((3S,4R)-3-hydroxytetrahydro-2H-pyran-4-yl)amino)pyrimidin-4-yl)-3-(2-hydroxypropan-2-yl)-1-isopropylquinolin-4(1H)-one]
